This passage reports TGI results from PubChem BioAssay (NCI).

This experiment relates to P388/ADR leukemia. Kind of experiment: NCI tumour cell line growth inhibition, 48 h.

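Where inhibition never reached the appropriate level, the endpoint shown equals the highest concentration tested. Otherwise, values were interpolated linearly from a five-concentration, 48-hour dose response in 96-well plates. TGI is the concentration that stops growth completely.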

Turning to `C[C@H](N)C(=O)N[C@@H]1[C@H]2C(=C(O)C[C@@H](O)[C@@H]2O)C(=O)O[C@]1(C)C(Cl)Cl`, the TGI was 2100 nM.
